Laboratory results reported in ChEMBL document CHEMBL1158843, “Development of a radiochemical cyclooxygenase-1 and -2 in vitro assay for identification of natural products as inhibitors of prostaglandin biosynthesis” (J Nat Prod, 1998).

Target: T1, Prostaglandin G/H synthase 1 (Bos taurus) (UniProt O62664)
T1 sequence (whole entry): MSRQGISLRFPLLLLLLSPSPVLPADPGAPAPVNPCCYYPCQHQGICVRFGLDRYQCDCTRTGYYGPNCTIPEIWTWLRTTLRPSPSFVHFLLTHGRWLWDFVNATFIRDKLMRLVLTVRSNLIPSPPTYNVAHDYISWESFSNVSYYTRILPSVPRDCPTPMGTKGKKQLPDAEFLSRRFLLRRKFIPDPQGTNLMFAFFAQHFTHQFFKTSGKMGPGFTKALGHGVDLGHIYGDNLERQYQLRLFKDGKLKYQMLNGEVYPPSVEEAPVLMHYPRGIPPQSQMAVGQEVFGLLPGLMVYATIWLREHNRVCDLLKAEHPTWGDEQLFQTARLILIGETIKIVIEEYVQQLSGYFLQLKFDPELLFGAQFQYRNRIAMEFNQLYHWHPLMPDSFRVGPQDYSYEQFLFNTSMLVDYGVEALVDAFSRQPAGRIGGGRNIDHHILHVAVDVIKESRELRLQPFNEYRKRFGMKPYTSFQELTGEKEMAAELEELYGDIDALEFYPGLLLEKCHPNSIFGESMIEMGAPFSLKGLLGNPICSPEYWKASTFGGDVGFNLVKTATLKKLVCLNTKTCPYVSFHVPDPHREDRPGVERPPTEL
Test: Inhibition of bovine seminal microsomal COX1 assessed as PGE2 production at 100 uM preincubated for 10 mins

Compound: CS(=O)(=O)Nc1ccc([N+](=O)[O-])cc1OC1CCCCC1
- inhibition: 9%
